Measurements taken from PubChem BioAssay (NCI).
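48-hour exposure; five concentrations; linearly interpolated endpoints. GI50: concentration for 50% inhibition of growth. TGI is the concentration that stops growth completely.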

Experiments:
Test in all cases: DTP human tumour cell line panel, 48 h
[1] = system: MALME-3M melanoma
[2] = system: MDA-MB-435
[3] = system: PC-3 prostate
[4] = system: SF-295 CNS
[5] = system: TK-10 renal
[6] = system: HCT-15 colon
[7] = system: UO-31 renal
[8] = system: ACHN renal
[9] = system: MCF7 breast
[10] = system: KM12 colon
[11] = system: SW-620 colon
[12] = system: OVCAR-3 ovarian
[13] = system: HCC-2998 colon
[14] = system: RXF 393 renal
[15] = system: IGROV1 ovarian
[16] = system: SNB-75 CNS
[17] = system: A498 renal
[18] = system: K-562 leukemia
[19] = system: OVCAR-4 ovarian
[20] = system: HT29 colon
[21] = system: RPMI-8226 leukemia
[22] = system: DU-145 prostate
[23] = system: U251 CNS
[24] = system: SK-MEL-5 melanoma
[25] = system: NCI-H460 lung
[26] = system: M14 melanoma
[27] = system: SK-OV-3 ovarian
[28] = system: MOLT-4 leukemia
[29] = system: UACC-62 melanoma

SMILES: CC(C)(C)c1[nH]nc2c1C(c1cc3ccccc3[nH]c1=O)Nc1cc(C(=O)Nc3ccc(Cl)cc3)ccc1N2 (configuration not stated)
- TGI [1]: 4.41 µM
- GI50 [2]: 1.84 µM
- TGI [2]: 4.84 µM
- GI50 [3]: 3.15 µM
- TGI [3]: 11.7 µM
- GI50 [4]: 2.77 µM
- TGI [4]: 8.82 µM
- GI50 [5]: 3.71 µM
- TGI [5]: 17.2 µM
- GI50 [6]: > 28.8 µM
- TGI [6]: > 100 µM
- GI50 [7]: 46 µM
- TGI [7]: > 100 µM
- GI50 [8]: 4.71 µM
- TGI [8]: > 64.7 µM
- GI50 [9]: 2.55 µM
- TGI [9]: 15.3 µM
- GI50 [10]: 3.33 µM
- TGI [10]: 16.2 µM
- GI50 [11]: 3.13 µM
- TGI [11]: 12.3 µM
- GI50 [12]: 1.93 µM
- TGI [12]: 3.82 µM
- GI50 [13]: 2.64 µM
- TGI [13]: 6.52 µM
- GI50 [14]: 1.94 µM
- TGI [14]: 3.7 µM
- GI50 [15]: 3.28 µM
- TGI [15]: 8.95 µM
- GI50 [16]: 2.27 µM
- TGI [16]: 6.51 µM
- GI50 [17]: 1.58 µM
- TGI [17]: 3.8 µM
- GI50 [18]: 2.94 µM
- TGI [18]: > 54.9 µM
- GI50 [19]: 2.12 µM
- TGI [19]: 6.96 µM
- GI50 [20]: 3.46 µM
- TGI [20]: 13 µM
- GI50 [21]: 1.9 µM
- TGI [21]: 5.27 µM
- GI50 [22]: 4.26 µM
- TGI [22]: > 48.4 µM
- GI50 [23]: 3.08 µM
- TGI [23]: 11.4 µM
- GI50 [24]: 1.77 µM
- TGI [24]: 3.55 µM
- GI50 [25]: 3.21 µM
- TGI [25]: 18.2 µM
- GI50 [26]: 2.12 µM
- TGI [26]: 4.75 µM
- GI50 [27]: 3.04 µM
- TGI [27]: 8.01 µM
- GI50 [28]: 2.32 µM
- TGI [28]: 7.91 µM
- GI50 [29]: 2.03 µM
- TGI [29]: 4.41 µM
